# Reference: ChEMBL document CHEMBL1134874, “Identification of a novel partial inhibitor of dopamine transporter among 4-substituted 2-phenylquinazolines” (Bioorg Med Chem Lett, 2002)
# Assays:
# [1] = biological target: Sodium-dependent serotonin transporter (Rattus norvegicus, UniProt P31652); experiment: Inhibition of [125I]RTI-55 binding to Serotonin transporter of rat caudate membranes; assay type: cell membranes, Membrane
# [2] = biological target: Sodium-dependent dopamine transporter (Rattus norvegicus, UniProt P23977); experiment: Displacement of [125I]RTI-55 from Dopamine transporter of rat caudate membranes; assay type: cell membranes, Membrane
# Sequence of Sodium-dependent dopamine transporter (P23977 whole entry): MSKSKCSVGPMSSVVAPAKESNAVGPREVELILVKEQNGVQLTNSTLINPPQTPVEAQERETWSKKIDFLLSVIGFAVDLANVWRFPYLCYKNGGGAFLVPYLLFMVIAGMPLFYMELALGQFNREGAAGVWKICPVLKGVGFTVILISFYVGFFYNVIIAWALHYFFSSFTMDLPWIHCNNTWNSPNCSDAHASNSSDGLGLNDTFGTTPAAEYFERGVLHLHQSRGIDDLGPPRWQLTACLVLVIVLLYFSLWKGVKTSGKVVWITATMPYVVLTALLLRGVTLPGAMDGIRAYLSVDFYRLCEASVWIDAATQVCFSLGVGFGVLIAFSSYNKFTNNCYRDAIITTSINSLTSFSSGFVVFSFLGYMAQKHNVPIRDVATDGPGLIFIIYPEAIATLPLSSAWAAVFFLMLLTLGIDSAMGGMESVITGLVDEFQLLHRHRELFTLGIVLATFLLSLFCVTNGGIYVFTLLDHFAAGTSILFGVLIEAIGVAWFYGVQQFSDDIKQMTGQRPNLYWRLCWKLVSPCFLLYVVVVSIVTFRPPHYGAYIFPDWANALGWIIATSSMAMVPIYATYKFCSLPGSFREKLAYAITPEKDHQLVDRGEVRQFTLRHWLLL
# Sequence of Sodium-dependent serotonin transporter (P31652 whole entry): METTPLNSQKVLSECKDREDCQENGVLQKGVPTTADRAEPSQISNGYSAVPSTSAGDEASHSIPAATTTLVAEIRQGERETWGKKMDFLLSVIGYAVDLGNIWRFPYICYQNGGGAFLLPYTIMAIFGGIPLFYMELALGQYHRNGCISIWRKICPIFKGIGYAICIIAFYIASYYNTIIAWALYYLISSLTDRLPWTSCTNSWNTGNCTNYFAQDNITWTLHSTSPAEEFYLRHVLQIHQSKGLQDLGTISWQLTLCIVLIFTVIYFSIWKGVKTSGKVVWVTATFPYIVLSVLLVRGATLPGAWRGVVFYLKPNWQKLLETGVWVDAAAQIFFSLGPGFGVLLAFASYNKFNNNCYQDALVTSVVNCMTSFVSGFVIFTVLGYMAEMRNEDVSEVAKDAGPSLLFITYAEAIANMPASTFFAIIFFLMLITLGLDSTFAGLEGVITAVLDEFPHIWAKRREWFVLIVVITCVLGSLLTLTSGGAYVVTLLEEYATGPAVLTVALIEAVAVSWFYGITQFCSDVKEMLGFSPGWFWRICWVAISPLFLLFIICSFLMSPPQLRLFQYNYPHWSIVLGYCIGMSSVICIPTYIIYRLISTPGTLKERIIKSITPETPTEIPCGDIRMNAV
Compound,Ki [1] [µM],Ki [2] [µM]
c1ccc(-c2nc(SC(c3ccccc3)c3ccccc3)c3ccccc3n2)cc1,> 10,> 10
CN1C2CCC1CC(Oc1nc(-c3ccccc3)nc3ccccc13)C2 (stereo not drawn),5.1,5.1
c1ccc(CNc2nc(-c3ccccc3)nc3ccccc23)cc1,> 10,7.9
C[C@H](Nc1nc(-c2ccccc2)nc2ccccc12)c1ccccc1,> 10,1.8
c1ccc(-c2nc(NCCC(c3ccccc3)c3ccccc3)c3ccccc3n2)cc1,> 10,> 10

# Other lines, results leading:
Ki [1] [µM],Ki [2] [µM],Compound
> 10,> 10,CN(C)CCCNc1nc(-c2ccccc2)nc2ccccc12
> 10,0.53,c1ccc(-c2nc(NC(c3ccccc3)c3ccccc3)c3ccccc3n2)cc1
> 10,5.4,c1ccc(-c2nc(NCC(c3ccccc3)c3ccccc3)c3ccccc3n2)cc1
> 10,9.1,CN1CCC(Oc2nc(-c3ccccc3)nc3ccccc23)CC1
> 10,,CN(C)CCCOc1nc(-c2ccccc2)nc2ccccc12
9.6,6.1,CN(C)CCCSc1nc(-c2ccccc2)nc2ccccc12
> 10,6.1,C[C@@H](Nc1nc(-c2ccccc2)nc2ccccc12)c1ccccc1
